Test results: US10266513B2 (Pfizer Inc., priority 2012, dated 2019)
Like-named read-outs stand apart in the source and are kept apart here.

How the values were obtained:
[1] = biological target: human full-length BTK Kinase (Homo sapiens (Human), UniProt Q06187); assay: Human BTK LanthaScreen Assay (TR-FRET); type: biochemical; conditions: 50 μM ATP, FAM-Srctide peptide substrate, read-out: BTK Inhibition IC50
From the text: Human BTK LanthaScreen Assay

Human B cells = assay: Human Primary B Cell Proliferation Assay (3H-thymidine incorporation, anti-human IgM stimulated); type: cell-based; conditions: purified human B cells, 50 μg/mL anti-human IgM F(ab')2, 72 hours
Description: Human Primary B Cell Proliferation Assay
Human B cells were purified from buffy coats using the human B cell RosetteSep kit per manufacturer's instructions. Purified cells were resuspended in RPMI-10% HIFCS, 2 mM L-glutamine, 100 U/mL penicillin, 100 μg/ml streptomycin, incubated with compounds for 1 hour at 37° C. and then stimulated with 50 μg/mL anti-human IgM F(ab′)2 for 72 hours. ^3H-thymidine was included in the culture media for the final 8-16 hours. Cells were harvested and ^3H-thymidine incorporation was measured.
Human B cell Proliferation Assay

human whole blood = assay: Human Whole Blood Histamine Assay (anti-IgE induced histamine release); type: cell-based; conditions: heparinized human whole blood, anti-human-IgE 2 μg/ml, histamine release by ELISA, read-out: HWB IC50
Description: Human Whole Blood Histamine Assay
Heparinized human whole blood (200 μl) was plated in 96-well V-bottom assay plates (VWR). Compounds diluted in 100% DMSO (1 μl) were added and incubated at 37° C. for 120 minutes. Anti-human-IgE antibody (KPL) was added to a final concentration of 2 μg/ml and assay plates incubated for 30 minutes at 37° C. Plates were spun at 2000 rpm for 8 minutes and the analyzed for histamine release by ELISA kits (Beckman Coulter).
Inhibition curves and IC50 values are determined using Excel-fit.

human EGFR kinase domain = human EGFR kinase domain (Homo sapiens (Human), UniProt P00533); assay: Human EGFR LanthaScreen Selectivity Assay (TR-FRET); type: biochemical; conditions: 20 μM ATP
Chain of human EGFR kinase domain (P00533 712-979): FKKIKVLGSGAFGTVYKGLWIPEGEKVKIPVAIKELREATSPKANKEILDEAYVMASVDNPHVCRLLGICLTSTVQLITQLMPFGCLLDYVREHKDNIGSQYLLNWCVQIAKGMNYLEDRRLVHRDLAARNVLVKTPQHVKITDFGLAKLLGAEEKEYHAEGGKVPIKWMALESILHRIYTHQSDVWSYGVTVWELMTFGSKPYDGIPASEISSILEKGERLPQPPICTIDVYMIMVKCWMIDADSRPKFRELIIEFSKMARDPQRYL
Description: The kinase reaction mixtures were incubated at room temperature for 60 minutes before stopping the kinase activity by the addition of 15 mM EDTA. The extent of peptide phosphorylation by EGFR was detected using a Terbium-conjugated anti-phospho-Tyrosine antibody (Tb-PT66 antibody, invitrogen # PV3557).

Chain of human full-length BTK Kinase (Q06187 whole entry): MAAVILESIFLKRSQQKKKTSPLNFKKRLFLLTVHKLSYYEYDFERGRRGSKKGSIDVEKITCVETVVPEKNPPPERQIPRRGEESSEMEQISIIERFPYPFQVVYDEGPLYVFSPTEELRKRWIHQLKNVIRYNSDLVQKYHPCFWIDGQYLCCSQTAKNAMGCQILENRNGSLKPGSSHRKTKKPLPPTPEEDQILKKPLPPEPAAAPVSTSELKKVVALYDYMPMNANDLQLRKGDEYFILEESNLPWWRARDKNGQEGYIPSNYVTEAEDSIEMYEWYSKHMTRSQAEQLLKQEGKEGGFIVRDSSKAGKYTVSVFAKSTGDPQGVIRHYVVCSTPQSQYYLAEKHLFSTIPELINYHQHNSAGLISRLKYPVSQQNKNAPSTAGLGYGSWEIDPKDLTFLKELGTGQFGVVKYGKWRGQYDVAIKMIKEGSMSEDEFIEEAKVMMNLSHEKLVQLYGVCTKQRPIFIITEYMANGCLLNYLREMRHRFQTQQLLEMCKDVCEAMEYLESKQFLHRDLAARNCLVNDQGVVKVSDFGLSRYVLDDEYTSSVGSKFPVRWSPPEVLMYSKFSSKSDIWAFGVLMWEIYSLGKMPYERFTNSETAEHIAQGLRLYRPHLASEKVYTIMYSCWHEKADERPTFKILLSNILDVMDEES

Structure (SMILES)	IC50 [1] [nM]	IC50 (Human B cells; B-cell) [nM]	IC50 (human whole blood) [nM]	IC50 (human EGFR kinase domain) [nM]	IC50 (Human B cells; Homo sapiens, B-cell) [nM]	IC50 (human whole blood; Homo sapiens) [nM]	IC50 (Human B cells) [nM]
C=CC(=O)N1CCC[C@@H](n2nc(-c3ccc(Oc4ccc(Cl)cn4)cc3)c(C(N)=O)c2N)C1 [Example 157, 1-[(3R)-1-acryloylpiperidin-3-yl]-5-amino-3-{4-[(5-chloropyridin-2-yl)oxy]phenyl}-1H-pyrazole-4-carboxamide]	1.3	24.2	98.7	29.7			
NC(=O)c1c(-c2ccc(Oc3ccc(Cl)cn3)cc2)nn([C@@H]2CCCN(C(=O)/C=C/C(F)F)C2)c1N [Example 159, 5-amino-3-{4-[(5-chloropyridin-2-yl)oxy]phenyl}-1-{(3R)-1-[(2E)-4,4-difluorobut-2-enoyl]piperidin-3-yl}-1H-pyrazole-4-carboxamide]	1.3	2.8		311			
N#CN1CCCC(n2nc(-c3ccc(Oc4ccccc4)cc3)c(C(N)=O)c2N)C1 (single isomer, unassigned) [Example 2]	0.37	0.5	33.3	1710			
NC(=O)c1c(-c2ccc(Oc3ccc(F)cc3F)cc2)nn([C@@H]2CCCN(C(=O)/C=C/CF)C2)c1N [Example 145, 5-amino-3-[4-(2,4-difluorophenoxy)phenyl]-1-{(3R)-1-[(2E)-4-fluorobut-2-enoyl]piperidin-3-yl}-1H-pyrazole-4-carboxamide]	2.8	11.8	126	2180			
NC(=O)c1c(-c2ccc(Oc3ncc(Cl)cc3F)cc2)nn([C@@H]2CCCN(C(=O)/C=C/CF)C2)c1N [Example 156, 5-amino-3-{4-[(5-chloro-3-fluoropyridin-2-yl)oxy]phenyl}-1-{(3R)-1-[(2E)-4-fluorobut-2-enoyl]piperidin-3-yl}-1H-pyrazole-4-carboxamide]	1.4	2.5		381			
C=CC(=O)N1CCC[C@H](n2nc(-c3ccc(Oc4ccccc4)cc3)c(C(N)=O)c2N)C1 [Example 126, 1-[(3S)-1-acryloylpiperidin-3-yl]-5-amino-3-(4-phenoxyphenyl)-1H-pyrazole-4-carboxamide]				802	20.9	201	
N#CN1CCCC(n2nc(-c3ccc(Oc4ccc(F)cc4F)cc3)c(C(N)=O)c2N)C1 (single isomer, unassigned) [Example 27]	1.3	2.7	64.3	16800			
C=CC(=O)N1CCC[C@@H](n2nc(-c3ccc(Oc4ccc(Cl)cc4)cc3)c(C(N)=O)c2N)C1 [Example 130, 1-[(3R)-1-acryloylpiperidin-3-yl]-5-amino-3-[4-(4-chlorophenoxy)phenyl]-1H-pyrazole-4-carboxamide]	0.17	0.15	133	7.9			
C=CC(=O)N1CCC[C@@H](n2nc(-c3ccc(Oc4ccc(F)cc4F)cc3)c(C(N)=O)c2N)C1 [Example 137, 1-[(3R)-1-acryloylpiperidin-3-yl]-5-amino-3-[4-(2,4-difluorophenoxy)phenyl]-1H-pyrazole-4-carboxamide]	0.25		31.4	25.6			0.63
NC(=O)c1c(-c2ccc(Oc3cccc(C(F)(F)F)n3)cc2)nn([C@@H]2CCCN(C(=O)/C=C/CO)C2)c1N [Example 162, 5-amino-1-{(3R)-1-[(2E)-4-hydroxybut-2-enoyl]piperidin-3-yl}-3-(4-{[6-(trifluoromethyl)pyridin-2-yl]oxy}phenyl)-1H-pyrazole-4-carboxamide]	9.8	103	343	14100			
NC(=O)c1c(-c2ccc(Oc3ccc(Cl)cc3)cc2)nn([C@@H]2CCCN(C(=O)/C=C/CO)C2)c1N [Example 131, 5-amino-3-[4-(4-chlorophenoxy)phenyl]-1-{(3R)-1-[(2E)-4-hydroxybut-2-enoyl]piperidin-3-yl}-1H-pyrazole-4-carboxamide]	2.3	1.6	259	2200			
NC(=O)c1c(-c2ccc(Oc3ncc(Cl)cc3F)cc2)nn([C@@H]2CCCN(C(=O)/C=C/C(F)F)C2)c1N [Example 155, 5-amino-3-{4-[(5-chloro-3-fluoropyridin-2-yl)oxy]phenyl}-1-{(3R)-1-[(2E)-4,4-difluorobut-2-enoyl]piperidin-3-yl}-1H-pyrazole-4-carboxamide]	0.7	2		106			
C=CC(=O)N1CCC[C@@H](n2nc(-c3ccc(Oc4cccc(C(F)(F)F)n4)cc3)c(C(N)=O)c2N)C1 [Example 161, 1-[(3R)-1-acryloylpiperidin-3-yl]-5-amino-3-(4-{[6-(trifluoromethyl)pyridin-2-yl]oxy}phenyl)-1H-pyrazole-4-carboxamide]	1.2	3	52.7	89.8			
N#CN1CCC[C@@H](n2nc(-c3ccc(Oc4ncc(Cl)cc4F)cc3)c(C(N)=O)c2N)C1 [Example 118, (R)-5-amino-3-(4-((5-chloro-3-fluoropyridin-2-yl)oxy)phenyl)-1-(1-cyanopiperidin-3-yl)-1H-pyrazole-4-carboxamide]	7.6	29.6	50	> 50000			
C=CC(=O)N1CCC[C@H](n2nc(-c3ccc(Oc4ccc(F)cc4F)cc3)c(C(N)=O)c2N)C1 [Example 136, 1-[(3S)-1-acryloylpiperidin-3-yl]-5-amino-3-[4-(2,4-difluorophenoxy)phenyl]-1H-pyrazole-4-carboxamide]	7.8		570	214	0.44		
N#CN1CCCC(n2nc(-c3ccc(Oc4ccc(Cl)cc4)cc3)c(C(N)=O)c2N)C1 (single isomer, unassigned) [Example 15]	0.64	1.7	20.6	3890			
N#CN1CCC[C@@H](n2nc(-c3ccc(Oc4ccc(Cl)cn4)cc3)c(C(N)=O)c2N)C1 [Example 110, (R)-5-amino-3-(4-((5-chloropyridin-2-yl)oxy)phenyl)-1-(1-cyanopiperidin-3-yl)-1H-pyrazole-4-carboxamide]	9.2	1.6	94.7	> 15400			
NC(=O)c1c(-c2ccc(Oc3cccc(C(F)(F)F)n3)cc2)nn([C@@H]2CCCN(C(=O)/C=C/CF)C2)c1N [Example 164, 5-amino-1-{(3R)-1-[(2E)-4-fluorobut-2-enoyl]piperidin-3-yl}-3-(4-{[6-(trifluoromethyl)pyridin-2-yl]oxy}phenyl)-1H-pyrazole-4-carboxamide]	3.2	11.4		3360			
N#CN1CCC[C@@H](n2nc(-c3ccc(Oc4cccc(C(F)(F)F)n4)cc3)c(C(N)=O)c2N)C1 [Example 116, (R)-5-amino-1-(1-cyanopiperidin-3-yl)-3-(4-((6-(trifluoromethyl)pyridin-2-yl)oxy)phenyl)-1H-pyrazole-4-carboxamide]	2.6	14.9	41.8	> 26800			
NC(=O)c1c(-c2ccc(Oc3ccc(F)cc3F)cc2)nn([C@@H]2CCCN(C(=O)/C=C/CO)C2)c1N [Example 151, 5-am no-3-[4-(2,4-difluorophenoxy)phenyl]-1-{(3R)-1-[(2E)-4-hydroxybut-2-enoyl]-piperidin-3-yl}-1H-pyrazole-4-carboxamide]	2.3	0.22	258	12100			
